# Tests used:
# [1] = test system: methanol-grown Methylococcus capsulatus CRL M1 (NRRL B-11,219); test: Production of 2-butanone from 2-butanol by cell suspensions, inhibition studies; format: cell-based; conditions: 1 mM
# [2] = test system: secondary alcohol dehydrogenase; test: Purified yeast-derived secondary alcohol dehydrogenase activity; format: biochemical, Pichia sp. NRRL Y-11,328; conditions: purified enzyme
# Method: Large scale cultures of Pichia sp. NRRL Y-11,328 were grown with aeration at 30° C. in a 14-liter New Brunswick f fermentor in a mineral salt medium containing methanol (0.4%, v/v) as the sole carbon source. The cells (200 g., wet weight) were suspended in […] sodium phosphate buffer, pH 7.0, containing 1 mM dithiothreitol (buffer A), and crude extracts were prepared as described previously. To the crude extracts, 18 ml. of protamine sulfate solution [2% solution in 0.1 M tris (hydroxymethyl) aminomethane (tris) base] was added dropwise with continuous stirring. After standing for 30 min., the extracts were centrifuged at 20,000×g. for 60 min. The supernatant solution was fractionated with solid ammonium sulfate. Extracts were brought to 50% of saturation with respect to ammonium sulfate by addition of 313 g. of the salt per liter of extract. Precipitated proteins was removed by centrifugation, and 137 g. of ammonium sulfate was added per liter of the supernatant liquid to bring it to 70% of saturation. Material precipitating between 50 and 70% of saturation was collected by centrifugation and dissolved in buffer A. This preparation was dialyzed overnight against buffer A, and the dialyzed material was applied to a DEAE-cellulose column (5×40 cm) that had been equilibrated with buffer A. The sample was washed with 200 ml. of buffer A and eluted with 2 liters of buffer A that contained NaCl in a linear gradient running from a concentration of 0 to 0.5 M. Fractions of 15 ml. were collected. Fractions containing secondary alcohol dehydrogenase activity were pooled and were termed DEAE-cellulose eluate. The DEAE-cellulose eluate was concentrated by ammonium sulfate fractionation.
# Secondary alcohol dehydrogenase activity was measured spectrophotometrically at 340 nm with a NAD^+ as an electron acceptor. The reaction mixture, in a total 3.0 ml., contained 50 mM phosphate buffer, pH 8.0, 5 μmoles NAD^+, crude extracts, and substrate. […] Protein concentration was determined by the method of Lowry et al.
# The substrate specificity of the purified secondary alcohol dehydrogenase was examined spectrophotometrically.
# [3] = test system: secondary alcohol dehydrogenase (SADH); test: Purified secondary alcohol dehydrogenase (SADH) activity; format: biochemical, Pseudomonas sp. ATCC 21439; conditions: each inhibitor 1 mM; measured spectrofluorometrically
# Method: Secondary alcohol dehydrogenase (SADH) from an obligate methanol utilizer, Pseudomonas sp. ATCC 21439 was purified as follows. […] 0.05 M sodium phosphate buffer, pH 7.0 with 0.5 mM dithiothretol (buffer A) and were disrupted sonically (5×1 min.). The crude extract was separated by centrifugation. The crude extract was heat-treated at 50° C. in a water bath for 10 minutes. The resulting precipitate was removed by centrifugation. To the supernatant solution, 25 ml of protamine sulfate solution (2% solution in 0.1 M Tris base) was added dropwise with continuous stirring. After standing for 30 minutes, the extract was centrifuged. The supernatant solution was fractionated with solid ammonium sulfate. The material precipitating between 30 and 60% saturation was collected and was dialized overnight against buffer A. The The dialized material was applied to a DEAE-cellulose column (3 cm by 35 cm) that had been equilibrated with buffer A. The secondary alcohol dehydrogenase activity was eluted in the void volume. This DEAE-cellulose eluate was concentrated by ammonium sulfate fractionation. Material precipitating between 30 and 50% ammonium sulfate saturation was collected by centrifugation and dialyzed overnight against A. This fraction was further washed and filtered through an Amicon unit with XM 50 membrane. The concentrated fraction (6 ml) inside the Amicon unit was applied to an Affi-Gel Blue column (0.8 cm×18 cm) which had been equilibrated with buffer A for affinity chromatography. The column was washed overnight with buffer A (0.18 ml./min.) and then was eluted with buffer A containing 5 mM NAD. Each 1 ml. fraction was collected.
# The purified secondary alcohol dehydrogenase enzyme (SADH) may be used directly for converting C3 -C6 secondary alcohols to the corresponding methyl ketones by the procedures described above; however, a source of NAD^+ must be added to the reaction medium. One can determine the NAD-linked secondary alcohol dehydrogenase activity with a fluorescence spectrophotometer (Perkin Elmer, Model MPF 44A) by following the formation of reduced NAD (Ex 340 nm, Em 460 nm). The assay system (3 ml.) will typically contain: sodium phosphate buffer pH 7.0, 150 μmol; NAD 1.0 μmol; a given amount of enzyme preparation; and 20 μmol secondary alcohol. The reaction is started by the addition of secondary alcohol. One unit of SADH enzyme activity represents the reduction of one nmole NAD per minute.
# The effect of metal-chelating agents and thioreagents on the activity of the purified SADH enzyme were studied. […] The possibility of ethanol or n-propanol as an inhibitor was studied.
# [4] = test system: cell-free particulate fractions derived from the methylotrophic microorganisms; test: Inhibition of conversion of C3-C6 n-alkanes to sec. alcohols by cell-free particulate fractions; format: biochemical; conditions: oxygen and NADH
# Excerpt: The conditions for preparing the cell suspensions or the cell-free particulate fractions from methane-grown methylotroph microorganisms is the same as described above. […] Tables XXV and XXVI show the conversion of C3 -C6 n-alkanes to the corresponding secondary alcohols using cell suspensions and cell-free particulate fractions, respectively, of methane-grown methylotroph microorganisms.
structure (smiles),measurement,setting,value
"c1cnc2c(c1)ccc1cccnc12 [1,10-Phenanthroline]",Inhibition of 2-butanone production (yes/no),[1],inhibited
same,inhibition of secondary alcohol dehydrogenase activity,[2],strongly inhibited
same,% inhibition of SADH activity,[3],95%
same,inhibition of the conversion of n-alkanes to sec. alcohols,[4],inhibited
